# Reference: patent US9999218B2, “Pest control formulations and methods of making and using same” (0903608 B.C. Ltd., priority 2011, dated 2018)
# Like-named read-outs stand apart in the source and are kept apart here.
# What was measured:
# adult bed bugs [1] = assay type: in vivo
# bed bug eggs [2] = assay type: in vivo, Cimex lectularius L.
# Text: Immediately after infestation, and at 1-, 2-, and 3-week intervals thereafter, the numbers of hatched and unhatched eggs present in the sealed dishes were counted and compared to other Treated Groups. One egg was counted as “hatched” for every new nymph present in the petri dish when compared with the prior interval. Table 13 compares the % egg eclosion of the treated groups at the 3-week observation interval. The maximum mortality data obtained in Example 3, above, are included for comparison purposes.
# adult bed bugs [3] = conditions: […] neem oil + […] named solvent in isopropanol, 4 h dried in highly-ventilated room; for Max. Mortality: observed until 14 days
# Experimental: This example illustrates the dry residual pesticidal activity of formulations including neem oil and various organic solvents including alcohols, ketones, esters and carboxylic acids. […] The percent by weight of each solvent was varied to ensure a consistent molar quantity of solvent in each solution. Treated Groups for each solution were prepared by treating filter paper, 90 mm in diameter, with 1.0 mL of solution and allowing it to air dry for four hours in a highly-ventilated room. A known number of adults were added to each treated dish, four hours after treatment. Bed bug mortality was assessed immediately after infestation and at 1-hour, 2-hour, 4-hour, 6-hour, 8-hour, 10-hour, 12-hour, and 24-hour intervals, and at 24-hour intervals thereafter until 14 days after infestation. Adult bed bugs were counted dead if they were unresponsive when stimulated.
# bed bug eggs [4] = test: Prevention of egg emergence by various pesticidal natural oils (Example 11); assay type: in vivo, Cimex lectularius L.; conditions: […] by weight oil with 5.0% acetophenone; all observation intervals
# Experimental: Five bed bug eggs were added to each treated dish, two hours after treatment. Immediately after infestation, and at 1-, 2-, and 3-week intervals thereafter, the numbers of hatched and unhatched eggs present in the sealed dishes were counted and compared to other Treated Groups. One egg was counted as “hatched” for every new nymph present in the petri dish when compared with the prior interval. Table 12 compares the mean % egg eclosion of the treated groups at three weeks post-infestation. The maximum mortality data obtained in Example 2, above, are included for each formulation, for comparison purposes.
# adult bed bugs [5] = conditions: in vivo
# Experimental: This example illustrates the dry residual pesticidal activity of formulations comprising further pesticidal natural oils (thyme, garlic and neem oils) with acetophenone as the polar aromatic solvent. Solutions were prepared using 5.5% by weight natural oil; the percentage by weight of organic solvent indicated in Table 20 and an appropriate amount of isopropanol as a carrier diluent. Solvent was added to a final concentration of 1.5 mol/kg. Solutions were also prepared of each natural oil alone (5.5% by weight with an appropriate amount of isopropanol as a carrier diluent), and of the polar organic solvent alone (the percent by weight indicated in Table 20 with an appropriate amount of isopropanol as a carrier diluent). Treated Groups for each solution were prepared by treating filter paper, 90 mm in diameter, with 1.0 mL of solution and allowing it to air dry for four hours. A known number of adults (usually 10) were added to each treated dish, four hours after treatment. Bed bug mortality was assessed immediately after infestation and at 1-hour, 2-hour, 4-hour, 6-hour, 8-hour, 10 hour, 12-hour, and 24-hour intervals, and at 24-hour intervals thereafter until 14 days after infestation. Adult bed bugs were counted dead if they were unresponsive when stimulated.
# [6] = […] neem oil + […] named solvent in isopropanol, 4 h dried residue
# [7] = […] neem oil + […] named solvent in isopropanol, 4 h dried residue, observed until 14 days
# [8] = […] neem oil + named solvent in isopropanol, 4 h dried residue, 3 weeks after infestation
Compound,Time to Max Mortality (adult bed bugs [1]; [6]) [h],Max. Mortality (adult bed bugs [1]; [7]) [%],% Eclosion (bed bug eggs [2]; [8]) [%],Time to Max Mortality (adult bed bugs [3]) [days],Max. Mortality (adult bed bugs [3]) [%],other results
CC(O)c1ccccc1 (stereo not shown) [1-Phenylethanol],24,100,0,,,
"O=C(c1ccc(O)cc1O)c1ccc(O)cc1O [2,2′-4,4′ Tetrahydroxybenzophenone]",24,100,0,,,
"CC(C)CC(O)CC(C)C [2,6-Dimethyl-4-heptanol]",,,,14,20,
CCCCCCC(CO)CCCC (stereo not shown) [2-Butyl-1-octanol],,,,8,100,
CCCCC(CC)CO (stereo not shown) [2-Ethyl-1-hexanol],,,0,,,Max. Mortality (adult bed bugs [1]; in vivo): 100%; Time to Max Mortality (adult bed bugs [1]; in vivo): 72 h
CC(C)(O)c1ccccc1 [2-Phenyl-2-propanol],,,,1,100,
"CC(C)O [2-Propanol (IPA), 2-Propanol]",140,40,,,,
CCCCCCCCC(CO)CCCCCC (stereo not shown) [2-hexyl-1-decanol],,,,14,100,
Cc1ccc(O)c(C=O)c1 [2-hydroxy-5-methyl benzaldehyde],,,,1,100,
CC(=O)OC1CCCCC1C(C)(C)C (stereo not shown) [2-tert-Butylcyclohexylacetate],96,100,20,,,
"CC(=O)c1ccc(C)cc1C [2′,4′-Dimethylacetophenone]",24,100,0,,,
CC(=O)c1ccccc1O [2′-Hydroxyacetophenone],,,,1,100,
"Cc1ccc(CO)cc1C [3,4-dimethylbenzyl alcohol]",,,,14,100,
"CC(=O)c1ccc(C)c(C)c1 [3′,4′-Dimethylacetophenone]",48,100,0,,,
O=C(O)c1ccc(O)cc1 [4-Hydroxy benzoic acid],,,,1,100,
Cc1cc(C(=O)O)ccc1O [4-Hydroxy-3-methyl benzoic acid],,,,14,60,
CC(=O)c1ccc(O)cc1 [4′-Hydroxyacetophenone],,,,9,50,
CCCCC(=O)c1ccc(O)cc1 [4′-Hydroxyvalerophenone],,,,14,70,
CC(=O)c1ccc(C)cc1 [4′-Methylacetophenone],48,100,0,,,
CCC(=O)c1ccc(C)cc1 [4′-Methylpropiophenone],24,100,0,,,

Compound,Time to Max Mortality (adult bed bugs [1]; [6]) [h],Max. Mortality (adult bed bugs [1]; [7]) [%],% Eclosion (bed bug eggs [2]; [8]) [%],Time to Max Mortality (adult bed bugs [3]) [days],Max. Mortality (adult bed bugs [3]) [%],other results
Cc1ccc(C(C)O)cc1 (stereo not drawn) [Alpha-4-dimethylbenzyl alcohol],,,,1,100,
O=Cc1ccccc1 [Benzaldehyde],336,100,0,,,
c1ccccc1 [Benzene],,,,14,40,
O=C(O)c1ccccc1 [Benzoic acid],,,0,,,Max. Mortality (adult bed bugs [1]; in vivo): 100%; Time to Max Mortality (adult bed bugs [1]; in vivo): 48 h
OCc1ccccc1 [Benzyl alcohol],24,100,0,,,
O=C(OCc1ccccc1)c1ccccc1 [Benzyl benzoate],,,,8,100,
COCc1ccccc1 [Benzyl methyl ether],,,,8,60,
CCCCOc1ccccc1 [Butyl phenyl ether],,,,6,100,
CCCC(=O)c1ccccc1 [Butyrophenone],24,100,0,,,
OC1CCCCC1 [Cyclohexanol],336,60,60,,,
O=C1CCCCC1 [Cyclohexanone],240,50,40,,,
O=C(c1ccccc1)C1CCCCC1 [Cyclohexyl phenyl ketone],,,,8,90,
c1ccc(COCc2ccccc2)cc1 [Dibenzyl ether],,,,7,90,
c1ccc(Oc2ccccc2)cc1 [Diphenyl ether],,,,3,100,
CCOC(C)=O [Ethyl acetate],336,30,100,,,
CCOC(=O)c1ccccc1 [Ethyl benzoate],,,,2,100,
CCCCCC(=O)c1ccccc1 [Hexanophenone],140,100,0,,,
CC(C)COC(=O)c1ccccc1 [Isobutyl benzoate],,,,8,90,
CC(C)C(=O)c1ccccc1 [Isobutyrophenone],48,100,0,,,
CC(=O)C1CCCCC1 [Methylcyclohexylketone],264,70,80,,,

Compound,Time to Max Mortality (adult bed bugs [1]; [6]) [h],Max. Mortality (adult bed bugs [1]; [7]) [%],% Eclosion (bed bug eggs [2]; [8]) [%],Time to Max Mortality (adult bed bugs [3]) [days],Max. Mortality (adult bed bugs [3]) [%],other results
Oc1ccccc1 [Phenol],,,,1,100,
CCC(=O)c1ccccc1 [Propiophenone],24,100,0,,,
CCCOC(=O)c1ccc(O)cc1 [Propyl-4-hydroxybenzoate],24,100,0,,,
"CCCCO [Solution 1-Butanol, 1-Butanol]",,,,,,Max. Mortality (adult bed bugs [1]; in vivo): 40%; Time to Max Mortality (adult bed bugs [1]; in vivo): 190 h; % Eclosion (bed bug eggs [2]; in vivo): 100%
"CCCCCCCCCCO [Solution 1-Decanol, 1-Decanol]",,,0,,,Max. Mortality (adult bed bugs [1]; in vivo): 100%; Time to Max Mortality (adult bed bugs [1]; in vivo): 264 h
"CCCCCCO [Solution 1-Hexanol, 1-Hexanol]",,,0,,,Max. Mortality (adult bed bugs [1]; in vivo): 40%; Time to Max Mortality (adult bed bugs [1]; in vivo): 336 h
"CCCCCCCCCO [Solution 1-Nonanol, 1-Nonanol]",,,,2,100,
"CCCCCCCCCCCCO [Solution 1-dodecanol, 1-dodecanol]",,,,14,90,
"CCC(C)O (stereo not shown) [Solution 2-Butanol, 2-Butanol]",,,,,,Max. Mortality (adult bed bugs [1]; in vivo): 20%; Time to Max Mortality (adult bed bugs [1]; in vivo): 336 h; % Eclosion (bed bug eggs [2]; in vivo): 100%
"CCCCCCC(C)O (stereo not shown) [Solution 2-Octanol, 2-Octanol]",,,,2,100,
"CCCCC(O)CC (stereo not shown) [Solution 3-Heptanol, 3-Heptanol]",,,,14,30,
Cc1ccccc1 [Toluene],,,,14,50,
C/C=C/c1ccc(OC)cc1 [Trans-anethole],,,,5,100,
CCCCC(=O)c1ccccc1 [Valerophenone],24,100,0,,,
CC(C)=CCC/C(C)=C/CO [geraniol],,,,,,prevention of egg eclosion (bed bug eggs [4]): complete prevention of egg eclosion
Cc1ccc(C=O)cc1 [p-Tolualdehyde],,,,6,50,
Cc1ccc(C)cc1 [p-Xylene],,,,14,30,
Neem Oil,,,,,,Max Mortality (adult bed bugs [5]): 10%
